Reference: ChEMBL document CHEMBL6153025, “Multidrug-resistant bacteria quorum-sensing inhibitors: A particular focus on Pseudomonasaeruginosa” (Eur J Med Chem, 2025)
≈ marks a conversion by molar mass, not a printed value. Blank lines part the entries; values can stand above or below the compound they belong to.

How the values were obtained:
[1] = system: Pseudomonas aeruginosa; test: Antivirulence activity in Pseudomonas aeruginosa PAO1 assessed as reduction in elastase production at 10 uM relative to control; format: functional; design: scale not given: the % may be the effect or the level left
[2] = Inhibition of quorum sensing system in Pseudomonas aeruginosa PAO1- rhlA-gfp assessed as reduction in fluorescence intensity measured for 12 hrs by GFP reporter strain assay
[3] = Inhibition of quorum sensing system in Pseudomonas aeruginosa PAO1-pqsA-gfp assessed as reduction in fluorescence intensity incubated for 12 hrs by GFP reporter strain assay
[4] = system: Pseudomonas aeruginosa; test: Downregulation of rhlA mRNA level in Pseudomonas aeruginosa PAO1 at 32 ug/ml relative to control; format: functional; details: dose 32 µg/ml
[5] = system: Pseudomonas aeruginosa; test: Antivirulence activity against Pseudomonas aeruginosa PAO1 assessed as reduction in pyocyanin level at 10 uM relative to control; format: functional; design: scale not given: the % may be the effect or the level left
[6] = system: Pseudomonas aeruginosa; test: Anti-virulence effect in Pseudomonas aeruginosa PAO1 assessed as inhibition of rhamnolipid production at 10 uM relative to control; format: functional; design: scale not given: the % may be the effect or the level left
[7] = system: Pseudomonas aeruginosa; test: Antivirulence activity against Pseudomonas aeruginosa PAO1 assessed as inhibition of pyocyanin production at 16 ug/ml relative to control; format: functional; design: scale not given: the % may be the effect or the level left; details: dose 16 µg/ml
[8] = system: Pseudomonas aeruginosa; test: Downregulation of lasA mRNA expression in Pseudomonas aeruginosa PAO1 at 160 ug/ml incubated for 6 hrs by RT-qPCR analysis relative to control; format: functional; details: dose 160 µg/ml
[9] = system: Pseudomonas aeruginosa; test: Antibiofilm activity against Pseudomonas aeruginosa PA14 assessed as reduction in biofilm formation; format: functional
[10] = system: Pseudomonas aeruginosa; test: Antibiofilm activity against Pseudomonas aeruginosa ATCC 27853 assessed as inhibition of biofilm formation at 8 microg/ml incubated for 24 hrs by crystal violet staining based analysis relative to control; format: functional; design: scale not given: the % may be the effect or the level left; details: dose 8 µg/ml
[11] = system: Pseudomonas aeruginosa; test: Anti-virulence effect in Pseudomonas aeruginosa PAO1 assessed as inhibition of pyocyanin production at 250 ug/ml relative to control; format: functional; design: scale not given: the % may be the effect or the level left; details: dose 250 µg/ml
[12] = system: Pseudomonas aeruginosa; test: Antibiofilm activity against Pseudomonas aeruginosa PAO1 assessed as inhibition of biofilm formation at 250 ug/ml incubated for 24 hrs by crystal violet staining based assay relative to control; format: functional; design: scale not given: the % may be the effect or the level left; details: dose 250 µg/ml
[13] = system: Pseudomonas aeruginosa; test: Antibiofilm activity against Pseudomonas aeruginosa PAO1 assessed as reduction in biofilm formation at 16 ug/ml incubated for 2 to 4 hrs by crystal violet staining based analysis relative to control; format: functional; design: scale not given: the % may be the effect or the level left; details: dose 16 µg/ml; time 2-4 hrs
[14] = system: Pseudomonas aeruginosa; test: Anti-virulence effect in Pseudomonas aeruginosa PAO1 assessed as inhibition of rhamnolipid production at 250 ug/ml relative to control; format: functional; design: scale not given: the % may be the effect or the level left; details: dose 250 µg/ml
[15] = system: Pseudomonas aeruginosa; test: Antibacterial activity against Pseudomonas aeruginosa PAO1 assessed as bacterial growth inhibition after 24 hrs by liquid microdilution method; format: functional
[16] = system: Pseudomonas aeruginosa; test: Downregulation of rhlR mRNA expression in Pseudomonas aeruginosa PAO1 at 160 ug/ml incubated for 6 hrs by RT-qPCR analysis relative to control; format: functional; details: dose 160 µg/ml
[17] = system: Pseudomonas aeruginosa; test: Antibiofilm activity against Pseudomonas aeruginosa PAO1 assessed as inhibition of biofilm formation incubated for 24 hrs by crystal violet staining based assay; format: functional, organism-based; details: PAO1, 24 h
[18] = system: Pseudomonas aeruginosa; test: Downregulation of lasI mRNA expression in Pseudomonas aeruginosa PAO1 at 16 ug/ml relative to control; format: functional; details: dose 16 µg/ml
[19] = system: Pseudomonas aeruginosa; test: Downregulation of lasB mRNA expression in Pseudomonas aeruginosa PAO1 at 160 ug/ml incubated for 6 hrs by RT-qPCR analysis relative to control; format: functional; details: dose 160 µg/ml
[20] = system: Pseudomonas aeruginosa; test: Downregulation of rhlI mRNA expression in Pseudomonas aeruginosa PAO1 at 160 ug/ml incubated for 6 hrs by RT-qPCR analysis relative to control; format: functional; details: dose 160 µg/ml
[21] = system: Pseudomonas aeruginosa; test: Downregulation of lasR mRNA expression in Pseudomonas aeruginosa PAO1 at 16 ug/ml relative to control; format: functional; details: dose 16 µg/ml
[22] = system: Pseudomonas aeruginosa; test: Antibiofilm activity against Pseudomonas aeruginosa PA14 assessed as inhibition of biofilm formation at 16 ug/ml incubated for 24 hrs by microscopic analysis relative to control; format: functional; design: scale not given: the % may be the effect or the level left; details: dose 16 µg/ml
[23] = target: T1, Transcriptional activator protein LasR (Pseudomonas aeruginosa (strain ATCC 15692 / PAO1 / 1C / PRS 101 / LMG12228)) (UniProt P25084); test: Inhibition of LasR-mediated quorum sensing system in Pseudomonas aeruginosa PAO1 at 128 ug/ml relative to control; details: dose 128.0 µg/ml
T1 sequence (whole entry): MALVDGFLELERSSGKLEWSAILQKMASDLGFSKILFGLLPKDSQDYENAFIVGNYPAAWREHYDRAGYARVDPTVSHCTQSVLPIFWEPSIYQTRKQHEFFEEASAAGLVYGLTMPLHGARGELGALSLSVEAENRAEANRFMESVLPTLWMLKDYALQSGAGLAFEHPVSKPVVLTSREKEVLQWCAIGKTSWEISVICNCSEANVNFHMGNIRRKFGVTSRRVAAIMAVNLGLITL

[24] = Inhibition of quorum sensing system in Pseudomonas aeruginosa PA14 assessed as inhibition of pyocyanin production at 128 ug/ml relative to control; details: dose 128.0 µg/ml
[25] = Inhibition of quorum sensing system in Pseudomonas aeruginosa PAO1 expressing lasI-gfp assessed as inhibition of lasI expression at 50 ug/ml incubated for 8 hrs under shaking condition by microplate reader based analysis relative to control; details: dose 50.0 µg/ml
[26] = system: Pseudomonas aeruginosa; test: Antibacterial activity against Pseudomonas aeruginosa PAO1 assessed as reduction in bacterial growth; format: functional
[27] = system: Pseudomonas aeruginosa; test: Antivirulence activity in Pseudomonas aeruginosa PAO1 assessed as reduction in elastase production at 10 uM incubated for 24 hrs by elastin-congo red dye based absorbance assay relative to control; format: functional; design: scale not given: the % may be the effect or the level left
[28] = Inhibition of quorum sensing system in Pseudomonas aeruginosa PAO1-rhlA-gfp assessed as inhibition of rhlA expression at 50 ug/ml incubated for 8 hrs by microplate reader based analysis relative to control; details: dose 50.0 µg/ml
[29] = system: Pseudomonas aeruginosa; test: Antibiofilm activity against Pseudomonas aeruginosa PAO1 assessed as inhibition of biofilm formation at 16 microg/ml incubated for 20 hrs by crystal violet staining based analysis; format: functional; design: scale not given: the % may be the effect or the level left; details: dose 16 µg/ml
[30] = system: Pseudomonas aeruginosa; test: Antivirulence activity against Pseudomonas aeruginosa PAO1 assessed as reduction in pyocyanin production at 20 ug/ml relative to control; format: functional; design: scale not given: the % may be the effect or the level left; details: dose 20 µg/ml
[31] = system: Pseudomonas aeruginosa; test: Antibacterial activity against Pseudomonas aeruginosa PAO1 assessed as bacterial growth inhibition measured after 18 hrs by CLSI protocol based two-fold serial microdilution method; format: functional
[32] = system: Pseudomonas aeruginosa; test: Antivirulence activity against Pseudomonas aeruginosa PAO1 assessed as inhibition of pyocyanin production at 25 ug/ml incubated for 16 hrs under agitation by photometric analysis relative to control; format: functional; design: scale not given: the % may be the effect or the level left; details: dose 25 µg/ml
[33] = system: Pseudomonas aeruginosa; test: Antivirulence activity in Pseudomonas aeruginosa PAO1 assessed as reduction in pyocyanin production at 10 uM incubated for 24 hrs by absorbance based analysis relative to control; format: functional; design: scale not given: the % may be the effect or the level left
[34] = system: Pseudomonas aeruginosa; test: Anti-virulence activity in Pseudomonas aeruginosa PAO1 assessed as reduction in pyoverdine production at 160 ug/ml by absorbance based analysis relative to control; format: functional; design: scale not given: the % may be the effect or the level left; details: dose 160 µg/ml
[35] = system: Pseudomonas aeruginosa; test: Downregulation of rhlA mRNA level in Pseudomonas aeruginosa PAO1 at 10 uM by RT-qPCR analysis; format: functional
[36] = Inhibition of quorum sensing system in Pseudomonas aeruginosa PAO1 expressing lasB-gfp assessed as inhibition of lasB expression at 50 ug/ml incubated for 8 hrs by microplate reader based analysis relative to control; details: dose 50.0 µg/ml
[37] = Inhibition of quorum sensing system in Pseudomonas aeruginosa PAO1 expressing lasB-gfp at 16 uM relative to control
[38] = system: Pseudomonas aeruginosa; test: Antibiofilm activity against Pseudomonas aeruginosa PA14 assessed as reduction in biofilm formation at 16 ug/ml incubated for 2 to 4 hrs by crystal violet staining based analysis relative to control; format: functional; design: scale not given: the % may be the effect or the level left; details: dose 16 µg/ml; time 2-4 hrs

Compound: C=C1CC(=O)N(CCCCCCCCCCCCCC)C1=O
Activity [1]: 50%
IC50 [2]: 0.61 µM
IC50 [3]: 0.143 µM
Activity [4]: 75%
Activity [5]: 55%

Compound: c1cc2c(cc1O[C@H]1OC[C@H]3[C@@H]1CO[C@@H]3c1ccc3c(c1)OCO3)OCO2 [SESAMOLIN]
Activity [6]: 42%
Activity [7]: 79%
Activity [8]: 53.95%
MIC [9]: 150 µg/mL (≈ 405 µM)
Activity [10]: 97%

Compound: O=C1CCc2ccccc2O1 [DIHYDROCOUMARIN]
Activity [11]: 87.25%
Activity [12]: 46.1%
Activity [13]: 36%
Activity [14]: 48.94%

Compound: O=C/C=C/c1ccccc1
MIC [15]: 11.3 µM (≈ 1.5 µg/mL)
Activity [8]: 65%
Activity [16]: 99%
IC50 [17]: 2.29 µM
Activity [18]: 86%
Activity [19]: 28%
Activity [20]: 70%
Activity [21]: 98.56%

inhibition [23]: 45.1%
inhibition [24]: 75%
Compound: O=C(CN1CCOCC1)Nc1cccc([N+](=O)[O-])c1
Activity [22]: 77%

Compound: Cc1ccc(CCC(=O)NC2CCOC2=O)cc1 (configuration not stated)
inhibition [25]: 82%
MIC [26]: 10 µM (≈ 2.47 µg/mL)
Activity [27]: 52%
inhibition [28]: 91%
Activity [29]: 52%
Activity [30]: 66%

Compound: Oc1ncnc2[nH]ncc12 [ALLOPURINOL]
Activity [6]: 74%
Activity [7]: 74%
MIC [31]: 2 µg/mL (≈ 14.7 µM)
Activity [32]: 70%

Compound: CCCCCCn1ccnc1
Activity [33]: 97%
Activity [34]: 60%

inhibition [36]: 67.8%
Compound: CC1=C(/C=C/C(C)=C/C=C/C(C)=C/C=C/C=C(C)/C=C/C=C(C)/C=C/C2=C(C)C[C@@H](O)CC2(C)C)C(C)(C)C[C@H](O)C1 [ZEAXANTHIN]
Activity [35]: 43%

inhibition [37]: 44%
Compound: CCCCCCC/C=C\C(=O)O
Activity [38]: 8%

inhibition [36]: 54%
Compound: COc1cc(C)c(C(=O)Oc2cc(C)c(C(=O)O)c(O)c2)c(O)c1 [EVERNIC ACID]
Activity [35]: 50%

Compound: O=C(O)c1ccccc1O [SALICYLIC ACID]
MIC [15]: 11.3 µM (≈ 1.57 µg/mL)
Activity [8]: 31%
Activity [16]: 70%
IC50 [17]: 3.62 µM
Activity [18]: 60%
Activity [32]: 32%
Activity [19]: 22%
Activity [20]: 82%
Activity [21]: 78%
